# Assay results published in US9061984B2 (University of Louisville Research Foundation, Inc., priority 2008, dated 2015).
# pIC50: −log10 of the molar value. Like-named read-outs stand apart in the source and are kept apart here.
# Columns and labels:
# [1] = tested on: axenic amastigotes of L. amazonensis (strain MHOM/BR/76/LTB-012); experiment: microbe, parasite or virus in culture; conditions: Leishmania amazonensis
# [2] = tested on: axenic amastigotes of L. amazonensis (strain MHOM/BR/76/LTB-012); conditions: Table 8b; for pIC50: read-out: L. amazonensis IC50
# 3T3 cells = experiment: Cell growth inhibition bioassay (sulforhodamine B); assay type: cell-based, mouse; conditions: 48 h, SRB; for GI50: Mus musculus, NIH3T3, read-out: GI50 in indicated cell line: 3T3
# Method: (§1) The cytotoxicity of compounds was assayed as follows. […] Appropriate solvent controls were tested for comparison. The percent inhibition of cell growth relative to the control was evaluated colorimetrically using a sulforhodamine B dye by comparison to the control. The calorimetric procedure followed that published in Skehan et al., J. Nat. Cancer Inst., […], pp. 1107-1112 (1990) and Boyd & Paull, Drug Dev. Res., Vol. 34, pp. 91-109 (1995). […] The cell lines are: 3T3 cells are BALB/3T3 clone A31 embryonic mouse fibroblast cells; H460 cells are human large cell lung cancer cells; DU145 cells are human prostate carcinoma cells; MCF-7 cells are human breast adenocarcinoma cells; M-14 cells are human melanoma cells; HT-29 cells are human colon adenocarcinoma cells; PC3 cells are human prostate adenocarcinoma cells; K562 cells are human chronic myelogenous leukemia cells; and VERO cells are African Green Monkey kidney epithelial cells.
# [3] = Toxicity to peritoneal macrophages (Trypan Blue count); assay type: cell-based, BALB/C mouse; conditions: BALB/C, mouse, Cytotoxicity Macrophages IC50
# Method: (§2) Peritoneal macrophages were prepared as follows. Non-inflammatory macrophages (10^6) were collected from each BALB/C mouse. The cells adhered at 37° C. after 2 h under 5% CO2 in a CO2 incubator. The plates were then rinsed two to three times with 0.5 mL of RPMI+buffer MOPS without fetal calf serum to eliminate non-adhering cells. The supernatant on the plates was replaced by fresh medium (RPMI+glutamine+FCS+antibiotics), 0.5 mL of medium per well. To determine the toxicity of the compounds to macrophages, dilutions of compounds were added on a part of the macrophages prepared above. […] The medium was then removed and 1 μL of sterile Trypan Blue was added. Cover glasses N° 1 were left where cells were plated and then the number of macrophages in a microscope was determined with a haemocytometer. All experiments were performed in triplicate.
# VERO cells = experiment: Cell growth inhibition bioassay (sulforhodamine B); assay type: cell-based, African Green Monkey; conditions: 48 h, SRB; for GI50: Chlorocebus sabaeus, Vero, read-out: GI50 in indicated cell line: VERO
# Method: as §1
# M. tuberculosis H37Rv = experiment: Conventional aerobic (MABA) culture assay, luminescence MIC; assay type: cell-based, Mycobacterium tuberculosis; conditions: aerobic, 7 days, H37Rv; for MIC: Mycobacterium tuberculosis, 168 h
# DU145 cells = experiment: Cell growth inhibition bioassay (sulforhodamine B); assay type: cell-based, human; conditions: 48 h, SRB; for GI50: Homo sapiens, DU-145, read-out: GI50 in indicated cell line: DU145
# Method: as §1
# MCF-7 cells = experiment: Cell growth inhibition bioassay (sulforhodamine B); assay type: cell-based, human; conditions: 48 h, SRB; for GI50: Homo sapiens, MCF7, read-out: GI50 in indicated cell line: MCF-7
# Method: as §1
# HT-29 cells = experiment: Cell growth inhibition bioassay (sulforhodamine B); assay type: cell-based, human; conditions: 48 h, SRB; for GI50: Homo sapiens, HT-29, read-out: GI50 in indicated cell line: HT-29
# Method: as §1
# H460 cells = experiment: Cell growth inhibition bioassay (sulforhodamine B); assay type: cell-based, human; conditions: 48 h, SRB; for GI50: Homo sapiens, NCI-H460, read-out: GI50 in indicated cell line: H460
# Method: as §1
# M-14 cells = experiment: Cell growth inhibition bioassay (sulforhodamine B); assay type: cell-based, human; conditions: 48 h, SRB; for GI50: Homo sapiens, M14, read-out: GI50 in indicated cell line: M-14
# Method: as §1
# K562 cells = experiment: Cell growth inhibition bioassay (sulforhodamine B); assay type: cell-based, human; conditions: 48 h, SRB; for GI50: Homo sapiens, K562, read-out: GI50 in indicated cell line: K562
# Method: as §1
# [4] = tested on: Trypanosoma cruzi (Tulahuen C4); experiment: In vitro anti-T. cruzi activity (β-galactosidase CPRG colorimetric assay in VERO monolayer); assay type: cell-based; conditions: for inhibition at 10 µg/mL / pIC50: Trypanosoma cruzi, TULAHUEN, Vero; for inhibition at 10 µg/mL: 120 h, 10 μg/mL of each compound, 120 hours, read-out: T. cruzi Inhib. (%); for pIC50: Table 3, read-out: IC50 T. cruzi
# peritoneal macrophages = experiment: Toxicity to peritoneal macrophages (Trypan Blue count); assay type: cell-based, BALB/C mouse
# Method: as §2
# L. amazonensis = conditions: intralesional, compounds 5 mg/kg/day; for Mean lesion size (mm) / Mean parasite quantification (per 10^6) in lesion per mg (±SD) / Mean lesion wt (mg) (±SD) / % Variation of lesion wt / % reduction of parasite burden in the lesion: Glucantime 33 mg Sb(v)/kg/day; for Mean lesion wt (mg) (±SD): BALB/c mice n=10; for % Variation of lesion wt / % reduction of parasite burden in the lesion: vs control
# [5] = 72 h, read-out: IC50 L. amazonensis
# [6] = Mus musculus, Peritoneal macrophage, 48 h, Table 7, read-out: IC50 Macrophage
compound,measurement,setting,value
c1ccc(C(=NNc2ncnc3sc4c(c23)CCCC4)c2ccccc2)cc1 [II-49],pIC50,[1]; read-out: L. amazonensis IC50,4.15
same,Selectivity Index,[2],0.9
same,GI50,3T3 cells,> 62.5 µg/mL
same,IC50 at 48 h,[3],59.8 µM
same,GI50,VERO cells,> 62.5 µg/mL
same,MIC,M. tuberculosis H37Rv,> 100 µg/mL
same,GI50,DU145 cells,> 62.5 µg/mL
same,GI50,MCF-7 cells,> 62.5 µg/mL
same,GI50,HT-29 cells,> 62.5 µg/mL
same,GI50,H460 cells,> 62.5 µg/mL
same,GI50,M-14 cells,> 62.5 µg/mL
same,GI50,K562 cells,> 62.5 µg/mL
"C=CCOc1cc(OC)c(C(=O)/C=C/c2ccc[nH]2)c(OCC=C)c1 [Compound I-22, (2E)-3-(1H-pyrrol-2-yl)-1-[2-methoxy-4,6-bis(2-propenyloxy)phenyl]-2-propen-1-one]",pIC50,[1]; [5],4.03
same,inhibition at 10 µg/mL,[4],1.25%
same,pIC50,[4],< 4.00
"COc1cc(O)cc(O)c1C(=O)/C=C/C=C/c1ccccc1 [Compound I-39, (2E,4E)-1-(2,4-Dihydroxy-6-methoxyphenyl)-5-phenyl-2,4-pentadien-1-one]",pIC50,[1]; [5],4.28
"COc1cc(/C=C/C(=O)c2c(O)cc(O)cc2OC)ccc1O [Compound I-37, (2E)-1-(2,4-Dihydroxy-6-methoxyphenyl)-3-(3-methoxy-4-hydroxyphenyl)-2-propen-1-one]",pIC50,[1]; [5],4.83
"COc1cc(O)cc(O)c1C(=O)/C=C/c1ccc(C)cc1 [Compound I-41, (2E)-1-(2,4-Dihydroxy-6-methoxyphenyl)-3-(4-methylphenyl)-2-propen-1-one]",pIC50,[1]; [5],5.13
same,pIC50,peritoneal macrophages; [6],4.78
"C=CCOc1cc(OC)c(C(=O)/C=C/c2ccc(O)c(OC)c2)c(OCC=C)c1 [Compound I-18, (2E)-1-[2-Methoxy-4,6-bis(2-propenyloxy)phenyl]-3-(3-methoxy-4-hydroxyphenyl)-2-propen-1-one]",pIC50,[1]; [5],3.97
same,inhibition at 10 µg/mL,[4],27.9%
same,pIC50,[4],< 4.60
"COc1cc(/C=C/C(=O)c2c(O)cc(O)cc2OC)cc(OC)c1OC [Compound I-38, (2E)-1-(2,4-Dihydroxy-6-methoxyphenyl)-3-(3,4,5-trimethoxydroxyphenyl)-2-propen-1-one]",pIC50,[1]; [5],5.01
"COc1cccc(/C=C/C(=O)c2c(O)cc(O)cc2OC)c1 [Compound I-31, (2E)-1-(2,4-Dihydroxy-6-methoxyphenyl)-3-(3-methoxyphenyl)-2-propen-1-one]",pIC50,[1]; [5],4.92
same,pIC50,peritoneal macrophages; [6],4.75
O=[N+]([O-])c1ccccc1C=NNc1ncnc2sc3c(c12)CCCC3 [II-23],T. cruzi IC50 Lab A,[4]; Lab A,1.1 µg/mL
same,pIC50,[2],4.42
same,GI50 in indicated cell line: 3T3,3T3 cells,>62.5 µg/mL
same,pIC50,peritoneal macrophages,< 4.00
same,GI50 in indicated cell line: VERO,VERO cells,>62.5 µg/mL
same,MIC MABA,M. tuberculosis H37Rv,>100 µg/mL
same,GI50 in indicated cell line: DU145,DU145 cells,36.4 µg/mL
same,GI50 in indicated cell line: MCF-7,MCF-7 cells,18.4 µg/mL
same,GI50 in indicated cell line: HT-29,HT-29 cells,70.5 µg/mL
same,GI50 in indicated cell line: H460,H460 cells,18.7 µg/mL
same,GI50 in indicated cell line: M-14,M-14 cells,58.9 µg/mL
same,GI50 in indicated cell line: K562,K562 cells,61.6 µg/mL
"COc1cc(O)cc(O)c1C(=O)/C=C/c1ccc(O)cc1 [Compound I-30, (2E)-1-(2,4-Dihydroxy-6-methoxyphenyl)-3-(4-hydroxyphenyl)-2-propen-1-one]",pIC50,[1]; [5],4.80
same,pIC50,peritoneal macrophages; [6],4.66
"COc1cc(O)cc(O)c1C(=O)/C=C/c1ccccc1F [Compound I-34, (2E)-1-(2,4-Dihydroxy-6-methoxyphenyl)-3-(2-fluorophenyl)-2-propen-1-one]",pIC50,[1]; [5],4.93
same,pIC50,peritoneal macrophages; [6],4.80
"COc1cc(O)cc(O)c1C(=O)/C=C/c1ccc(C(F)(F)F)cc1 [Compound I-32, (2E)-1-(2,4-Dihydroxy-6-methoxyphenyl)-3-[4-(trifluoromethyl)phenyl]-2-propen-1-one]",pIC50,[1]; [5],5.07
same,pIC50,peritoneal macrophages; [6],4.77
"C=CCOc1cc(OC)c(C(=O)/C=C/C=C/c2ccccc2)c(OCC=C)c1 [Compound I-21, (2E,4E)-1-[2-Methoxy-4,6-bis(2-propenyloxy)phenyl]-5-phenyl-2,4-pentadien-1-one]",pIC50,[1]; [5],4.12
same,inhibition at 10 µg/mL,[4],47.7%
same,pIC50,[4],< 4.60
C(=N/Nc1ncnc2sc3c(c12)CCCC3)/c1ccncc1 [II-20],pIC50,[1]; read-out: L. amazonensis IC50,4.14
same,Selectivity Index,[2],0.7
same,GI50,3T3 cells,25.7 µg/mL
same,IC50 at 48 h,[3],47.7 µM
same,GI50,VERO cells,38.3 µg/mL
same,MIC,M. tuberculosis H37Rv,> 100 µg/mL
same,GI50,DU145 cells,26 µg/mL
same,GI50,MCF-7 cells,26 µg/mL
same,GI50,HT-29 cells,47.3 µg/mL
same,GI50,H460 cells,52.4 µg/mL
same,GI50,M-14 cells,> 62.5 µg/mL
same,GI50,K562 cells,33.8 µg/mL
"N-methylglucamine antimoniate [Glucantime, reference compound]",Mean lesion size (mm),L. amazonensis; after 4 weeks treatment,2.1 mm
same,Mean parasite quantification (per 10^6) in lesion per mg (±SD),L. amazonensis; after 4 weeks treatment,0 (0) amastigotes (×10^6)/mg
same,Mean lesion wt (mg) (±SD),L. amazonensis; after 4 weeks treatment,5.6 (±0.4) mg
same,% Variation of lesion wt,L. amazonensis; after 4 weeks treatment,91%
same,% reduction of parasite burden in the lesion,L. amazonensis; after 4 weeks treatment,100%
same,Mean lesion size (mm),L. amazonensis; after 7 weeks treatment,2.2 mm
same,Mean parasite quantification (per 10^6) in lesion per mg (±SD),L. amazonensis; after 7 weeks treatment,0 (0) amastigotes (×10^6)/mg
same,Mean lesion wt (mg) (±SD),L. amazonensis; after 7 weeks treatment,13.5 (±2.9) mg
same,% Variation of lesion wt,L. amazonensis; after 7 weeks treatment,85%
same,% reduction of parasite burden in the lesion,L. amazonensis; after 7 weeks treatment,100%
same,Lesion diameter,L. amazonensis; Glucantime 33 mg/kg/day,2.2 mm
same,Reduction of parasite burden After 4 weeks,"L. amazonensis; Glucantime 33 mg/kg/day, after 4 weeks",100%
same,Reduction of parasite burden After 7 weeks,"L. amazonensis; Glucantime 33 mg/kg/day, after 7 weeks",100%
"COc1cc(O)cc(O)c1C(=O)/C=C/c1ccc(F)cc1 [Compound I-40, (2E)-1-(2,4-Dihydroxy-6-methoxyphenyl)-3-(4-fluorophenyl)-2-propen-1-one]",pIC50,[1]; [5],4.93
same,pIC50,peritoneal macrophages; [6],4.54
"COc1cc(O)cc(O)c1C(=O)/C=C/c1ccc(Cl)cc1 [Compound I-33, (2E)-3-(4-Chlorophenyl)-1-(2,4-dihydroxy-6-methoxyphenyl)-2-propen-1-one]",pIC50,[1]; [5],4.95
same,pIC50,peritoneal macrophages; [6],4.72
"COc1cc(O)cc(O)c1C(=O)/C=C/c1ccccc1 [Compound I-29, (2E)-1-(2,4-Dihydroxy-6-methoxyphenyl)-3-(phenyl)-2-propen-1-one]",pIC50,[1]; [5],4.80
same,pIC50,peritoneal macrophages; [6],4.57
"COc1cc(O)cc(O)c1C(=O)/C=C/c1ccccc1Br [Compound I-35, (2E)-3-(2-Bromophenyl)-1-(2,4-dihydroxy-6-methoxyphenyl)-2-propen-1-one]",pIC50,[1]; [5],4.97
same,pIC50,peritoneal macrophages; [6],4.84
N#Cc1ccc(C=NNc2ncnc3sc4c(c23)CCCC4)cc1 [II-32],pIC50,[2],4.97
same,GI50 in indicated cell line: 3T3,3T3 cells,50.1 µg/mL
same,pIC50,peritoneal macrophages,4.27
same,GI50 in indicated cell line: VERO,VERO cells,>62.5 µg/mL
same,MIC MABA,M. tuberculosis H37Rv,>100 µg/mL
same,GI50 in indicated cell line: DU145,DU145 cells,>62.5 µg/mL
same,GI50 in indicated cell line: MCF-7,MCF-7 cells,33.9 µg/mL
same,GI50 in indicated cell line: HT-29,HT-29 cells,>62.5 µg/mL
same,GI50 in indicated cell line: H460,H460 cells,>62.5 µg/mL
same,GI50 in indicated cell line: M-14,M-14 cells,>62.5 µg/mL
same,GI50 in indicated cell line: K562,K562 cells,>62.5 µg/mL
